Measured values published in PubChem BioAssay AID256 (DTP/NCI, 2004).
Values joined by “and” are separate entries in the source; they are usually repeats but may differ in a detail not shown here. Equal entries are not always repeated. Inconclusive results and toxic doses are left out. Rule for the calls: active = survival T/C of 150% or more; inactive = T/C below 125% in these data.

System: CD2F1 mice, L1210 leukemia ip, survival T/C
Assay: NCI In Vivo Anticancer Drug Screen. Data for tumor model L1210 Leukemia (intraperitoneal) in CD2F1 (CDF1) mice
Details: higher = longer survival
In short: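 Tumor-bearing mice (transplanted tumor) were split into treated and vehicle control groups, and the measured endpoint of each treated group was divided by that of its vehicle controls.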

[1] = endpoint: mean survival time, dose: 50.0 mg/kg/injection, schedule: Q04DX003 (ip), vehicle: saline with Tween-80
[2] = endpoint: mean survival time, dose: 100.0 mg/kg/injection, schedule: Q04DX003 (ip), vehicle: saline with Tween-80
[3] = endpoint: mean survival time, dose: 200.0 mg/kg/injection, schedule: Q04DX003 (ip), vehicle: saline with Tween-80
[4] = endpoint: mean survival time, dose: 400.0 mg/kg/injection, schedule: Q04DX003 (ip), vehicle: saline with Tween-80
[5] = endpoint: mean survival time, dose: 25.0 mg/kg/injection, schedule: Q04DX002 (ip), vehicle: saline with Tween-80
[6] = endpoint: mean survival time, dose: 50.0 mg/kg/injection, schedule: Q04DX002 (ip), vehicle: saline with Tween-80
[7] = endpoint: mean survival time, dose: 100.0 mg/kg/injection, schedule: Q04DX002 (ip), vehicle: saline with Tween-80
[8] = endpoint: mean survival time, dose: 100.0 mg/kg/injection, schedule: Q01DX009 (ip), vehicle: saline with Tween-80
[9] = endpoint: mean survival time, dose: 100.0 mg/kg/injection, schedule: Q04DX003 (ip), vehicle: Klucel (hydroxypropylcellulose) (HPC)
[10] = endpoint: mean survival time, dose: 200.0 mg/kg/injection, schedule: Q04DX003 (ip), vehicle: Klucel (hydroxypropylcellulose) (HPC)
[11] = endpoint: mean survival time, dose: 100.0 mg/kg/injection, schedule: Q01DX001 (ip), vehicle: saline

Measured: T/C

COc1ccccc1/C=C/c1ccnc2ccccc12
inactive: endpoint: mean survival time, dose: 100.0 mg/kg/injection, schedule: Q01DX009 (ip), vehicle: saline 98 % of control | endpoint: mean survival time, dose: 200.0 mg/kg/injection, schedule: Q01DX009 (ip), vehicle: saline 95 % of control | endpoint: mean survival time, dose: 400.0 mg/kg/injection, schedule: Q01DX009 (ip), vehicle: saline 96 % of control

NC(=O)c1csc(COCC(O)CO)n1 (centres undefined)
inactive: endpoint: median survival time, dose: 33.0 mg/kg/injection, schedule: Q01DX009 (ip), vehicle: water 101 % of control | endpoint: median survival time, dose: 66.0 mg/kg/injection, schedule: Q01DX009 (ip), vehicle: water 103 % of control | endpoint: median survival time, dose: 132.0 mg/kg/injection, schedule: Q01DX009 (ip), vehicle: water 107 % of control | endpoint: median survival time, dose: 264.0 mg/kg/injection, schedule: Q01DX009 (ip), vehicle: water 101 % of control

C=C(Br)CNC(=O)Nc1c2ccccc2nc2ccccc12
inactive: endpoint: mean survival time, dose: 25.0 mg/kg/injection, schedule: Q01DX009 (ip), vehicle: Klucel (hydroxypropylcellulose) (HPC) 97 % of control | endpoint: mean survival time, dose: 50.0 mg/kg/injection, schedule: Q01DX009 (ip), vehicle: Klucel (hydroxypropylcellulose) (HPC) 98 % of control | endpoint: mean survival time, dose: 100.0 mg/kg/injection, schedule: Q01DX009 (ip), vehicle: Klucel (hydroxypropylcellulose) (HPC) 97 % of control

BrCCC1(CCBr)CCCCC1
inactive: endpoint: median survival time, dose: 50.0 mg/kg/injection, schedule: Q01DX009 (ip), vehicle: other 104 % of control | endpoint: median survival time, dose: 200.0 mg/kg/injection, schedule: Q01DX009 (ip), vehicle: other 101 % of control | endpoint: median survival time, dose: 400.0 mg/kg/injection, schedule: Q01DX009 (ip), vehicle: other 101 % of control | endpoint: median survival time, dose: 800.0 mg/kg/injection, schedule: Q01DX009 (ip), vehicle: other 101 % of control

CC(NC1CCCCC1)c1ccc(O)cc1O (centres undefined)
inactive: endpoint: mean survival time, dose: 75.0 mg/kg/injection, schedule: Q01DX001 (ip), vehicle: other 93 % of control | endpoint: mean survival time, dose: 150.0 mg/kg/injection, schedule: Q01DX001 (ip), vehicle: other 87 % of control

Cc1ccc([I+]c2ccc(C)cc2)cc1
inactive: endpoint: mean survival time, dose: 0.25 mg/kg/injection, schedule: Q01DX009 (ip), vehicle: Klucel (hydroxypropylcellulose) (HPC) 98 % of control | endpoint: mean survival time, dose: 0.5 mg/kg/injection, schedule: Q01DX009 (ip), vehicle: Klucel (hydroxypropylcellulose) (HPC) 98 % of control | endpoint: mean survival time, dose: 1.0 mg/kg/injection, schedule: Q01DX009 (ip), vehicle: Klucel (hydroxypropylcellulose) (HPC) 105 % of control

C1N2CN3CN1CN(C2)C3.[Cl][Pt][Cl]
inactive: endpoint: mean survival time, dose: 25.0 mg/kg/injection, schedule: Q04DX003 (ip), vehicle: saline with Tween-80 123 % of control | [1] 101 % of control | [2] 98 % of control

COc1ccc(N2C(=O)C=CC2=O)cc1
inactive: endpoint: mean survival time, dose: 6.25 mg/kg/injection, schedule: Q01DX001 (ip), vehicle: saline with Tween-80 103 % of control | endpoint: mean survival time, dose: 12.5 mg/kg/injection, schedule: Q01DX001 (ip), vehicle: saline with Tween-80 88 % of control | endpoint: mean survival time, dose: 25.0 mg/kg/injection, schedule: Q01DX001 (ip), vehicle: saline with Tween-80 94 % of control and 97 % of control

CC(=O)C1=C(C)NC(C)=C(C(C)=O)C1c1cccc([N+](=O)[O-])c1
inactive: [2] 94 % of control | [3] 91 % of control | [4] 96 % of control

C=C[CH2][Sn]([c]1ccccc1)([c]1ccccc1)[c]1ccccc1
inactive: [1] 87 % of control | [2] 91 % of control

C=C(C(=O)OC)N1C(=O)CC(C)C1=O (centres undefined)
inactive: endpoint: mean survival time, dose: 12.5 mg/kg/injection, schedule: Q04DX002 (ip), vehicle: saline with Tween-80 97 % of control | [5] 108 % of control | [6] 90 % of control | [7] 86 % of control

ClC1(Cl)C2(Cl)C3(Cl)C4(Cl)C(Cl)(Cl)C5(Cl)C3(Cl)C1(Cl)C5(Cl)C24Cl (centres undefined)
inactive: [8] 97 % of control | [2] 103 % of control | endpoint: mean survival time, dose: 200.0 mg/kg/injection, schedule: Q01DX009 (ip), vehicle: saline with Tween-80 102 % of control | [3] 94 % of control | endpoint: mean survival time, dose: 400.0 mg/kg/injection, schedule: Q01DX009 (ip), vehicle: saline with Tween-80 100 % of control | [4] 96 % of control

Cc1ccnc(OCCCCCNCCS)c1
inactive: endpoint: mean survival time, dose: 75.0 mg/kg/injection, schedule: Q01DX001 (ip), vehicle: saline 98 % of control | endpoint: mean survival time, dose: 150.0 mg/kg/injection, schedule: Q01DX001 (ip), vehicle: saline 98 % of control

O=C(CCl)Nc1ccccc1Cl
inactive: [9] 97 % of control | [10] 103 % of control

CCCCCCCCCCCC[N+]1([O-])CCOCC1
inactive: [5] 101 % of control | [6] 97 % of control | [7] 108 % of control

CC(=O)NC(C)(NC(=O)CCl)C(=O)O (centres undefined)
inactive: [7] 100 % of control | endpoint: mean survival time, dose: 200.0 mg/kg/injection, schedule: Q04DX002 (ip), vehicle: saline with Tween-80 96 % of control | endpoint: mean survival time, dose: 400.0 mg/kg/injection, schedule: Q04DX002 (ip), vehicle: saline with Tween-80 93 % of control

C/C(=N\NC(N)=S)c1c(O)cc(C)[nH]c1=O
inactive: [11] 97 % of control | endpoint: mean survival time, dose: 200.0 mg/kg/injection, schedule: Q01DX001 (ip), vehicle: saline 101 % of control | endpoint: mean survival time, dose: 400.0 mg/kg/injection, schedule: Q01DX001 (ip), vehicle: saline 98 % of control

Cc1ccc(S(=O)(=O)n2nc(C3OC(CO)C(O)C3O)c(O)c2C(N)=O)cc1 (centres undefined)
inactive: endpoint: median survival time, dose: 44.6 mg/kg/injection, schedule: Q01DX005 (ip), vehicle: saline 120 % of control | endpoint: median survival time, dose: 89.3 mg/kg/injection, schedule: Q01DX005 (ip), vehicle: saline 120 % of control

Cc1ccc(-c2nc(SCc3ccc(Cl)cc3)[nH]c(=O)c2CCO)cc1
inactive: [9] 96 % of control | [10] 87 % of control

Cc1nc(N)nc2ccccc12
inactive: [11] 100 % of control

COc1ccc(C(=O)NN)cc1
inactive: endpoint: mean survival time, dose: 25.0 mg/kg/injection, schedule: Q01DX009 (ip), vehicle: saline with Tween-80 115 % of control | endpoint: mean survival time, dose: 50.0 mg/kg/injection, schedule: Q01DX009 (ip), vehicle: saline with Tween-80 110 % of control | [8] 109 % of control | [2] 101 % of control

O=C1c2cccc([N+](=O)[O-])c2C(=O)c2c1cccc2[N+](=O)[O-]
inactive: endpoint: mean survival time, dose: 100.0 mg/kg/injection, schedule: Q01DX001 (ip), vehicle: saline with Tween-80 103 % of control | endpoint: mean survival time, dose: 200.0 mg/kg/injection, schedule: Q01DX001 (ip), vehicle: saline with Tween-80 102 % of control | endpoint: mean survival time, dose: 400.0 mg/kg/injection, schedule: Q01DX001 (ip), vehicle: saline with Tween-80 96 % of control

NC(=O)CC(N)C(=O)O.[Cl-].[Cl-].[Cl-].[Cl-].[Pt+2] (centres undefined)
inactive: endpoint: mean survival time, dose: 0.78 mg/kg/injection, schedule: Q01DX009 (ip), vehicle: water 101 % of control | endpoint: mean survival time, dose: 1.56 mg/kg/injection, schedule: Q01DX009 (ip), vehicle: water 95 % of control | endpoint: mean survival time, dose: 3.13 mg/kg/injection, schedule: Q01DX009 (ip), vehicle: water 98 % of control | endpoint: mean survival time, dose: 6.25 mg/kg/injection, schedule: Q01DX009 (ip), vehicle: water 90 % of control | endpoint: mean survival time, dose: 12.5 mg/kg/injection, schedule: Q01DX009 (ip), vehicle: water 101 % of control

O=c1nc2c(ncn2C2OC(CO)C(O)C2O)c(NCCc2ccccc2)[nH]1 (centres undefined)
inactive: endpoint: mean survival time, dose: 12.5 mg/kg/injection, schedule: Q01DX005 (ip), vehicle: water 93 % of control | endpoint: mean survival time, dose: 25.0 mg/kg/injection, schedule: Q01DX005 (ip), vehicle: water 98 % of control | endpoint: mean survival time, dose: 50.0 mg/kg/injection, schedule: Q01DX005 (ip), vehicle: water 96 % of control | endpoint: mean survival time, dose: 100.0 mg/kg/injection, schedule: Q01DX005 (ip), vehicle: water 112 % of control

COC(=O)C1(C)CCOC1=O (centres undefined)
inactive: endpoint: mean survival time, dose: 100.0 mg/kg/injection, schedule: Q04DX002 (ip), vehicle: saline 107 % of control | endpoint: mean survival time, dose: 200.0 mg/kg/injection, schedule: Q04DX002 (ip), vehicle: saline 98 % of control | endpoint: mean survival time, dose: 400.0 mg/kg/injection, schedule: Q04DX002 (ip), vehicle: saline 102 % of control

c1ccc(CN(c2ccccc2)C2CCCCC2)cc1
inactive: [9] 91 % of control | [10] 91 % of control
